Measured values taken from US9597407B2, “Targeted antimicrobial moieties” (C3 Jian, Inc., priority 2009, dated 2017).
Entries after “also recorded” stand apart in the source; their conditions may differ.

System: bacteria
Assay: Binding of targeting peptides to microorganisms (Table 3)
Conditions: preferably 1x PBS; for Target(s): microorganism bound by the targeting peptide, binding in aqueous buffers chosen by peptide solubility; for Target(s) (microorganisms bound by the targeting peptide): peptide binding in aqueous buffers that varied depending on peptide solubility

Substance	Target(s)	Target(s) (microorganisms bound by the targeting peptide)
PF-368 (MLKQTA; Peptide with targeting and/or antimicrobial activity)	C. jeikeium; also recorded: C. jejuni	
PF-371 (TFIYNEF; Peptide with targeting and/or antimicrobial activity)	S. epidermidis; also recorded: B. fragilis; also recorded: C. jejuni	
PF-372 (KKQDKRIEDKYKRMKKGD; Peptide with targeting and/or antimicrobial activity)	C. jeikeium; also recorded: C. jejuni	
PF-384 (HISKERFEAY; Peptide with targeting and/or antimicrobial activity)	E. faecalis; also recorded: C. jeikeium; also recorded: C. jejuni	
PF-388 (ITPLLDEIGKVCIDKISK; Peptide with targeting and/or antimicrobial activity)		E. faecalis; also recorded: C. jeikeium; also recorded: C. jejuni
PF-400 (VIAWKFRNKFENSGV; Peptide with targeting and/or antimicrobial activity)		S. epidermidis; also recorded: E. coli; also recorded: S. pneumoniae; also recorded: E. faecalis; also recorded: C. jeikeium
PF-402 (FIDVLKSKINEFLN; Peptide with targeting and/or antimicrobial activity)		S. epidermidis; also recorded: P. aeruginosa; also recorded: E. faecalis; also recorded: C. jejuni
PF-409 (DLVQSILSEFKKSG; Peptide with targeting and/or antimicrobial activity)		S. epidermidis and MRSA and C. jeikeium and C. jejuni
PF-412 (TSGWLGQLEQ; Peptide with targeting and/or antimicrobial activity)		M. luteus; also recorded: E. coli; also recorded: C. albicans; also recorded: C. jeikeium; also recorded: C. jejuni
PF-435 (MSRWDGHSDKGEAPAGKPPMHGFGLNGENK; Peptide with targeting and/or antimicrobial activity)		C. jeikeium
PF-436 (KKHVLVGKQEKNG; Peptide with targeting and/or antimicrobial activity)		C. jeikeium
PF-438 (QPYFQNQFKKITGYTPLQYRKEKR; Peptide with targeting and/or antimicrobial activity)		S. epidermidis; also recorded: E. coli; also recorded: S. pneumoniae; also recorded: C. jeikeium; also recorded: C. jejuni
PF-441 (TQVHKMARGIDPGPANGIYR; Peptide with targeting and/or antimicrobial activity)		C. jeikeium
PF-463 (MVILVFSLIFIFTDNYLVYQSKSIKEDVMI; Peptide with targeting and/or antimicrobial activity)		S. epidermidis; also recorded: E. coli; also recorded: P. aeruginosa; also recorded: C. albicans; also recorded: S. pneumoniae; also recorded: E. faecalis; also recorded: M. smegmatis
PF-481 (DELYEIMDKVIEEFNKDIEQNNNNGNNEDLTENKIN; Peptide with targeting and/or antimicrobial activity)		C. jeikeium
PF-483 (EDNKDKKDKKDK; Peptide with targeting and/or antimicrobial activity)		P. mirabilis; also recorded: C. jeikeium; also recorded: C. jejuni
PF-486 (MQKEGEEDY; Peptide with targeting and/or antimicrobial activity)		S. mutans
PF-487 (MYKAIAVLAMTIMAFFIFVYPFFIVGLILG; Peptide with targeting and/or antimicrobial activity)		S. mutans; also recorded: E. coli
PF-488 (YPNEQGHHKNNLKNIIIE; Peptide with targeting and/or antimicrobial activity)		S. mutans; also recorded: E. coli
